Test results taken from US20110165271A1, “ANTITUMORAL TERPENOID PHARMACEUTICAL COMPOSITION 'ABISILIN' EXHIBITING ANGIOGENESIS-INHIBITING ACTION” (priority 2008, published 2011).

Assays:
melanoma B-16 = experiment: Antitumor activity on transplantable tumor; format: in vivo, mice; conditions: Abisilin 50 mg/kg per os days 2-11 and/or Cisplatin 5 mg/kg once day 2
Experimental: (§1) The mice and rats were purchased from the Experimental Animal Division of the Blokhin Russian Oncologic Center, the Russian Academy of Medicinal Sciences, and maintained on an ordinary food ration.
(§2) Sunflower seed oil was used as the solvent for the pharmaceutical.
(§3) Cisplatin purchased from Bristol-Myers Squibb was used in the experiments.
(§4) Abisilin was administered to animals orally every day for 10 days, or in the following schedule: on the 2nd and 6th days or on the 2nd and 11th days. […] In the combined treatment, Abisilin was administered to mice orally every day for 10 days, beginning 48 h after tumor transplantation, in a dose of 50 mg/kg; the antitumor agent Cisplatin was administered once intraperitonially (ip) in a dose of 5 mg/kg. Animals bearing the aforementioned tumors were monitored until they died. The antitumor effects of the pharmaceutical were judged from percentage tumor growth inhibition (TGI, %) in the experimental animals against control animals.
(§5) The statistical significance of the antitumor effect against the untreated control was determined by the Fisher-Student test. The difference between the compared groups was regarded as statistically reliable when p≦0.05.

[1] = system: colon adenocarcinoma (CAC); experiment: Antitumor activity on transplantable tumor; format: in vivo, mice
Experimental: as §1, §2, §3, §4, §5

[2] = system: breast adenocarcinoma Ca-755; experiment: Antitumor activity on transplantable tumor; format: in vivo, mice; conditions: Abisilin 50 mg/kg per os days 2-11 and/or Cisplatin 5 mg/kg once day 2
Experimental: as §1, §2, §3, §4, §5

[3] = system: metastatic colorectal cancer; conditions: patients bearing metastatic colorectal cancer; increase from 15.6 months; cited from earlier work

Molecule | TGI (melanoma B-16; day 7) [%] | TGI (melanoma B-16; day 9) [%] | TGI (melanoma B-16; day 11) [%] | TGI (melanoma B-16; day 17) [%] | TGI ([1]; day 7, Abisilin 50 mg/kg per os days 2-11 and/or Cisplatin 5 mg/kg once day 2) [%] | TGI ([1]; day 12, Abisilin 50 mg/kg per os days 2-11 and/or Cisplatin 5 mg/kg once day 2) [%] | TGI ([1]; day 21, Abisilin 50 mg/kg per os days 2-11 and/or Cisplatin 5 mg/kg once day 2) [%] | TGI ([1]; day 22, Cisplatin 5 mg/kg once day 2) [%] | sensitivity of the tumor in monotherapy ([1]; monotherapy, Abisilin 50 mg/kg, Cisplatin 5 mg/kg) | TGI ([2]; day 7) [%] | TGI ([2]; day 11) [%] | TGI ([2]; day 14) [%] | TGI ([2]; day 18) [%] | TGI ([2]; day 22) [%] | total survival period [3] [months]
N.N.[Cl][Pt][Cl] [Cisplatin] | 80 | 83 | 65 | 19 | 0 | 22 | 14 | 35 | insensitive | 86 | 62 | 52 | 43 | 39 | –
Avastin: monoclonal antibody drug binding vascular endothelial growth factor (VEGF); active substance bevacizumab | – | – | – | – | – | – | – | – | – | – | – | – | – | – | 20.3
